Point of comparison: `COc1ccc(/C=C/C(=O)C2C(=O)C[C@H](c3ccc(OC)cc3)[C@H]([N+](=O)[O-])[C@H]2c2ccco2)cc1` (some centres unmarked) [IX-7, 3-(Furan-2-yl)-5-(4-Methoxyphenyl)-2-((E)-3-(4-Methoxyphenyl)acryloyl)-4-Nitrocyclohexanone], melting point 192 °C. Against it:
- COc1ccc(/C=C/C(=O)C2C(=O)C[C@H](c3ccc(OC)cc3)[C@H]([N+](=O)[O-])[C@H]2c2ccc(OC)c(OC)c2)cc1 (some centres unmarked) [IX-2, 3-(3,4-Dimethoxyphenyl)-5-(4-Methoxyphenyl)-2-((E)-3-(4-Methoxyphenyl)acryloyl)-4-Nitrocyclohexanone] — lower, 126 to 128 °C
- COc1ccc([C@H]2C(C(=O)/C=C/c3ccccc3)C(=O)C[C@H](c3ccccc3)[C@@H]2[N+](=O)[O-])cc1 (some centres unmarked) [IX-12, 3-(4-methoxyphenyl)-4-nitro-5-phenyl-2-((E)-3-phenylacryloyl)cyclohexanone] — lower, 108 to 110 °C
- COc1ccc([C@H]2C(C(=O)/C=C/c3ccc(O)c(OC)c3)C(=O)C[C@H](c3ccc(O)c(OC)c3)[C@@H]2[N+](=O)[O-])cc1 (some centres unmarked) [IX-11, 5-(4-hydroxy-3-methoxyphenyl)-2-((E)-3-(4-hydroxy-3-methoxyphenyl)acryloyl)-3-(4-methoxyphenyl)-4-nitrocyclohexanone] — lower, 83 to 85 °C
- COc1ccc([C@H]2C(C(=O)/C=C/c3ccc(OCc4ccccc4)c(OC)c3)C(=O)C[C@H](c3ccc(OCc4ccccc4)cc3)[C@@H]2[N+](=O)[O-])cc1 (some centres unmarked) [IX-16, 2-((E)-3-(4-(benzyloxy)-3-methoxyphenyl)acryloyl)-5-(4-(benzyloxy)phenyl)-3-(4-methoxyphenyl)-4-nitrocyclohexanone] — lower, 76 to 78 °C
- COc1ccc(/C=C/C(=O)C2C(=O)C[C@H](c3ccc(OC)cc3)[C@H]([N+](=O)[O-])[C@H]2/C=C/c2ccccc2)cc1 (some centres unmarked) [IX-9, 5-(4-Methoxyphenyl)-2-((E)-3-(4-Methoxyphenyl)acryloyl)-4-nitro-3-styrylcyclohexanone] — lower, 88 to 90 °C
- COc1ccc(/C=C/C(=O)C2C(=O)C[C@H](c3ccc(OC)cc3)[C@H]([N+](=O)[O-])[C@H]2c2ccc3c(c2)OCO3)cc1 (some centres unmarked) [IX-6, 3-(Benzo[a][1,3]dioxol-5-yl)-5-(4-Methoxyphenyl)-2-((E)-3-(4-Methoxyphenyl)acryloyl)-4-Nitrocyclohexanone] — lower, 154 to 156 °C
- COc1ccc(/C=C/C(=O)C2C(=O)C[C@H](c3ccc(OC)cc3)[C@H]([N+](=O)[O-])[C@H]2c2ccccc2)cc1 (some centres unmarked) [IX-3, 5-(4-Methoxyphenyl)-2-((E)-3-(4-Methoxyphenyl)acryloyl)-4-Nitro-3-Phenylcyclohexanone] — lower, 164 to 165 °C
- CCCC[C@H]1C(C(=O)/C=C/c2ccc(OC)cc2)C(=O)C[C@H](c2ccc(OC)cc2)[C@@H]1[N+](=O)[O-] (some centres unmarked) [IX-15, 3-butyl-5-(4-methoxyphenyl)-2-((E)-3-(4-methoxyphenyl)acryloyl)-4-nitrocyclohexanone] — lower, 127 to 129 °C
- COc1ccc(/C=C/C(=O)C2C(=O)C[C@H](c3ccc(OC)cc3)[C@H]([N+](=O)[O-])[C@H]2c2cccs2)cc1 (some centres unmarked) [IX-5, 5-(4-Methoxyphenyl)-2-((E)-3-(4-Methoxyphenyl)acryloyl)-4-Nitro-3-(Thiophen-2-yl)cyclohexanone] — lower, 160 to 162 °C
- COc1ccc(/C=C/C(=O)C2C(=O)C[C@H](c3ccc(OC)cc3)[C@H]([N+](=O)[O-])[C@H]2C2CCCCC2)cc1 (some centres unmarked) [IX-14, 3-cyclohexyl-5-(4-methoxyphenyl)-2-((E)-3-(4-methoxyphenyl)acryloyl)-4-nitrocyclohexanone] — higher, 203 to 205 °C
- COc1ccc(C2C(C(=O)/C=C/c3ccc(OC)c(OC)c3)C(=O)C[C@H](c3ccc(OC)c(OC)c3)[C@@H]2[N+](=O)[O-])cc1 (some centres unmarked) [IX-10, 5-(3,4-dimethoxyphenyl)-3-(4-methoxyphenyl)-2-((E)-3-(3,4-dimethoxyphenyl)acryloyl)-4-Nitrocyclohexanone] — lower, 158 to 160 °C
- COc1ccc(/C=C/C(=O)C2C(=O)CC(c3ccc(OC)cc3)[C@H]([N+](=O)[O-])C2c2ccc(OC)cc2)cc1 (some centres unmarked) [IX-1, 3,5-Bis(4-Methoxyphenyl)-2-((E)-3-(4-Methoxyphenyl)acryloyl)-4-Nitrocyclohexanone] — higher, 200 to 202 °C
- COc1ccc(/C=C/C(=O)C2C(=O)C[C@H](c3ccc(OC)cc3)[C@H]([N+](=O)[O-])C2c2ccc(Cl)cc2)cc1 (some centres unmarked) [IX-4, 3-(4-Chlorophenyl)-5-(4-Methoxyphenyl)-2-((E)-3-(4-Methoxyphenyl)acryloyl)-4-Nitrocyclohexanone] — lower, 156 to 158 °C
